# Measured values as given in ChEMBL document CHEMBL4507258 (2021).
# Assays:
# [1] = system: Mast/stem cell growth factor receptor Kit (Homo sapiens), P10721 [A829P]; conditions: Compound concentration 1000.0 nM
# [2] = target: Mitogen-activated protein kinase 11 (Homo sapiens) (UniProt Q15759); conditions: Compound concentration 1000.0 nM
# [3] = target: Proto-oncogene tyrosine-protein kinase ROS (Homo sapiens) (UniProt P08922); conditions: Compound concentration 1000.0 nM
# [4] = target: Hormonally up-regulated neu tumor-associated kinase (Homo sapiens) (UniProt P57058); conditions: Compound concentration 1000.0 nM
# [5] = target: Dual specificity mitogen-activated protein kinase kinase 1 (Homo sapiens) (UniProt Q02750); conditions: Compound concentration 1000.0 nM
# [6] = target: Eukaryotic translation initiation factor 2-alpha kinase 1 (Homo sapiens) (UniProt Q9BQI3); conditions: Compound concentration 1000.0 nM
# [7] = system: Proto-oncogene tyrosine-protein kinase receptor Ret (Homo sapiens), P07949 [M918T]; conditions: Compound concentration 1000.0 nM
# [8] = system: Receptor-type tyrosine-protein kinase FLT3 (Homo sapiens), P36888 [UNDEFINED MUTATION]; conditions: Compound concentration 1000.0 nM
# [9] = target: Receptor tyrosine-protein kinase erbB-3 (Homo sapiens) (UniProt P21860); conditions: Compound concentration 1000.0 nM
# [10] = target: Mitogen-activated protein kinase kinase kinase 1 (Homo sapiens) (UniProt Q13233); conditions: Compound concentration 1000.0 nM
# [11] = target: Ephrin type-B receptor 6 (Homo sapiens) (UniProt O15197); conditions: Compound concentration 1000.0 nM
# [12] = system: Tyrosine-protein kinase ABL1 (Homo sapiens), P00519 [H396P]; conditions: Compound concentration 1000.0 nM
# [13] = target: Alpha-1B adrenergic receptor (Homo sapiens) (UniProt P35368); conditions: Compound concentration 10.0 uM
# [14] = target: Mitogen-activated protein kinase kinase kinase 12 (Homo sapiens) (UniProt Q12852); conditions: Compound concentration 1000.0 nM
# [15] = target: Calcium/calmodulin-dependent protein kinase type 1 (Homo sapiens) (UniProt Q14012); conditions: Compound concentration 1000.0 nM
# [16] = target: Glycogen synthase kinase-3 alpha (Homo sapiens) (UniProt P49840); conditions: Compound concentration 1000.0 nM
# [17] = target: Fibroblast growth factor receptor 1 (Homo sapiens) (UniProt P11362); conditions: Compound concentration 1000.0 nM
# [18] = target: Ribosomal protein S6 kinase beta-1 (Homo sapiens) (UniProt P23443); conditions: Compound concentration 1000.0 nM
# [19] = target: Mitogen-activated protein kinase kinase kinase 5 (Homo sapiens) (UniProt Q99683); conditions: Compound concentration 1000.0 nM
# [20] = target: Death-associated protein kinase 2 (Homo sapiens) (UniProt Q9UIK4); conditions: Compound concentration 1000.0 nM
# [21] = target: Serine/threonine-protein kinase BRSK2 (Homo sapiens) (UniProt Q8IWQ3); conditions: Compound concentration 1000.0 nM
# [22] = target: Delta-type opioid receptor (Homo sapiens) (UniProt P41143); conditions: Compound concentration 10.0 uM
# [23] = target: Serine/threonine-protein kinase LATS2 (Homo sapiens) (UniProt Q9NRM7); conditions: Compound concentration 1000.0 nM
# [24] = target: Hepatocyte growth factor receptor (Homo sapiens) (UniProt P08581); conditions: Compound concentration 1000.0 nM
# [25] = target: Casein kinase I isoform delta (Homo sapiens) (UniProt P48730); conditions: Compound concentration 1000.0 nM
# [26] = target: Receptor tyrosine-protein kinase erbB-2 (Homo sapiens) (UniProt P04626); conditions: Compound concentration 1000.0 nM
# [27] = target: Dual specificity protein kinase CLK1 (Homo sapiens) (UniProt P49759); conditions: Compound concentration 1000.0 nM
# [28] = target: Phosphatidylinositol 4,5-bisphosphate 3-kinase catalytic subunit beta isoform (Homo sapiens) (UniProt P42338); conditions: Compound concentration 1000.0 nM
# [29] = target: Protein kinase C epsilon type (Homo sapiens) (UniProt Q02156); conditions: Compound concentration 1000.0 nM
# [30] = target: Megakaryocyte-associated tyrosine-protein kinase (Homo sapiens) (UniProt P42679); conditions: Compound concentration 1000.0 nM
# [31] = target: Non-receptor tyrosine-protein kinase TYK2 (Homo sapiens) (UniProt P29597); conditions: Compound concentration 1000.0 nM
# [32] = target: Phosphatidylinositol 4,5-bisphosphate 3-kinase catalytic subunit alpha isoform (Homo sapiens) (UniProt P42336); conditions: Compound concentration 1000.0 nM
# [33] = target: Serine/threonine-protein kinase/endoribonuclease IRE1 (Homo sapiens) (UniProt O75460); conditions: Compound concentration 1000.0 nM
# [34] = target: MAP kinase-interacting serine/threonine-protein kinase 2 (Homo sapiens) (UniProt Q9HBH9); conditions: Compound concentration 1000.0 nM
# [35] = target: Serine/threonine-protein kinase BRSK1 (Homo sapiens) (UniProt Q8TDC3); conditions: Compound concentration 1000.0 nM
# [36] = target: Serine/threonine-protein kinase VRK2 (Homo sapiens) (UniProt Q86Y07); conditions: Compound concentration 1000.0 nM
# [37] = target: Phosphatidylinositol 5-phosphate 4-kinase type-2 gamma (Homo sapiens) (UniProt Q8TBX8); conditions: Compound concentration 1000.0 nM
# [38] = target: Serine/threonine-protein kinase MAK (Homo sapiens) (UniProt P20794); conditions: Compound concentration 1000.0 nM
# [39] = target: Leucine-rich repeat serine/threonine-protein kinase 2 (Homo sapiens) (UniProt Q5S007); conditions: Compound concentration 1000.0 nM
# [40] = target: 5-hydroxytryptamine receptor 2A (Homo sapiens) (UniProt P28223); conditions: Compound concentration 10.0 uM
# [41] = system: Mast/stem cell growth factor receptor Kit (Homo sapiens), P10721 [D816V]; conditions: Compound concentration 1000.0 nM
# [42] = target: Serine/threonine-protein kinase 32B (Homo sapiens) (UniProt Q9NY57); conditions: Compound concentration 1000.0 nM
# [43] = target: Serine/threonine-protein kinase tousled-like 1 (Homo sapiens) (UniProt Q9UKI8); conditions: Compound concentration 1000.0 nM
# [44] = target: Citron Rho-interacting kinase (Homo sapiens) (UniProt O14578); conditions: Compound concentration 1000.0 nM
# Chain of Dual specificity mitogen-activated protein kinase kinase 1 (Homo sapiens) (Q02750 whole entry): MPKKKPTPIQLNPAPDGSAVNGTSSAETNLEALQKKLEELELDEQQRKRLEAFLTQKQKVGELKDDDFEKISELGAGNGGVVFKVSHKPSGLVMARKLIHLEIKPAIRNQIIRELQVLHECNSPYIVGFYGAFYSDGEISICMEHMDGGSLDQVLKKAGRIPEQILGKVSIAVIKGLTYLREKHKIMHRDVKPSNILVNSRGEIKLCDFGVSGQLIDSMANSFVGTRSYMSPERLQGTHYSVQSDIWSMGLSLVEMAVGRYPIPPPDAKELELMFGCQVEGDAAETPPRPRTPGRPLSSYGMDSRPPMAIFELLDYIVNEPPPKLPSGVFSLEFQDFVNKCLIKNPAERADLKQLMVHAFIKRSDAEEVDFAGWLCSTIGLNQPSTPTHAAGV
# Chain of Ribosomal protein S6 kinase beta-1 (Homo sapiens) (P23443 whole entry, looked up): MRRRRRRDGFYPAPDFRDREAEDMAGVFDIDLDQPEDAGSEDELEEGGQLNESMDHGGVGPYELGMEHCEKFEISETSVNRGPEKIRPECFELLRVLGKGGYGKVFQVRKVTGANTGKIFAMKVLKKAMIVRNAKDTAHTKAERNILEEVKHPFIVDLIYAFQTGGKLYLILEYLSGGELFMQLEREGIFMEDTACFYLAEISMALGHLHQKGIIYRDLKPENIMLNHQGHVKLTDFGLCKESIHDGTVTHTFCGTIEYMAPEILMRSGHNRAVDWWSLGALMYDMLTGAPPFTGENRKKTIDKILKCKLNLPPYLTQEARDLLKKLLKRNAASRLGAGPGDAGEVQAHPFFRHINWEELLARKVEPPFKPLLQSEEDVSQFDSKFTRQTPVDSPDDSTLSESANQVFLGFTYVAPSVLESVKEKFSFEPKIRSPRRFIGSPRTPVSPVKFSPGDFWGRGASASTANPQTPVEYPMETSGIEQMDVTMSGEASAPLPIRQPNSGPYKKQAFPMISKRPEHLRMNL
# Chain of Dual specificity protein kinase CLK1 (Homo sapiens) (P49759 whole entry, looked up, canonical isoform): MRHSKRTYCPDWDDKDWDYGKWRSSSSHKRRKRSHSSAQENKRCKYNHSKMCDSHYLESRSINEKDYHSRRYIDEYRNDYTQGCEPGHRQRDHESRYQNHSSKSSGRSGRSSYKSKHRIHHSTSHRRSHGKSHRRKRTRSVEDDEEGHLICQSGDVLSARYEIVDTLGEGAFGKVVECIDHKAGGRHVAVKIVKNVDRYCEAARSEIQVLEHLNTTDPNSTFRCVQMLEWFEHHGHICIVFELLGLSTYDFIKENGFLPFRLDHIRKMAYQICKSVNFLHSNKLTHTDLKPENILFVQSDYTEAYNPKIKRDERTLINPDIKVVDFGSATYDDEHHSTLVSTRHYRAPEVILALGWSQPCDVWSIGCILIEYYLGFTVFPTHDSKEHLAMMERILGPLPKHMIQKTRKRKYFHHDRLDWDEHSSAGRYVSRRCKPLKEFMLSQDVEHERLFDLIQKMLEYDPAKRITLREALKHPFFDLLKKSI
# Chain of Casein kinase I isoform delta (Homo sapiens) (P48730 whole entry, looked up, canonical isoform): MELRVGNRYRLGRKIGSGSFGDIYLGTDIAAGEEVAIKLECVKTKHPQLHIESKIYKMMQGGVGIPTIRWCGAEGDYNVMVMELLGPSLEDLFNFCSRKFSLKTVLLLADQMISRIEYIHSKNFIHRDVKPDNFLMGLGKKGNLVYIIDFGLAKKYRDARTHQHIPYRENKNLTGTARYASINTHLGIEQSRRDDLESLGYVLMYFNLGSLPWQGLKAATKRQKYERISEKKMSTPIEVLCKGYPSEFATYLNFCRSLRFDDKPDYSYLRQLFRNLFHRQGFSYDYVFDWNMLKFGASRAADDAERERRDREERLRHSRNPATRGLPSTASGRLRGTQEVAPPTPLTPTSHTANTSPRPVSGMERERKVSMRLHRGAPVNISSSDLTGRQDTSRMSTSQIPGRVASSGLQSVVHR
# Chain of Glycogen synthase kinase-3 alpha (Homo sapiens) (P49840 2-483 limits assumed): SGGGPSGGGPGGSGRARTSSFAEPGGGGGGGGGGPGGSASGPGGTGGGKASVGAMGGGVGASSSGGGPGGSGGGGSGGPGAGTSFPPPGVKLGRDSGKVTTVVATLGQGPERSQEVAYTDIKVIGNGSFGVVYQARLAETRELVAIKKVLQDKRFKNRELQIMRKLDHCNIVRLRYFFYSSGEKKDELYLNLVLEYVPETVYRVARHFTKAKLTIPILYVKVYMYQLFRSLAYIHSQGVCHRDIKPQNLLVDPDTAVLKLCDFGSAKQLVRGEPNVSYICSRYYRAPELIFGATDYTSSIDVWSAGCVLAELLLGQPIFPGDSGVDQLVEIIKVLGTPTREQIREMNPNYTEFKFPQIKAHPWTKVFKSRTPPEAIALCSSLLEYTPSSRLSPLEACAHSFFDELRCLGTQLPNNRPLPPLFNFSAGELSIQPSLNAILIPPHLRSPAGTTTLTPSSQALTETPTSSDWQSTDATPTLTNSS
# Chain of Eukaryotic translation initiation factor 2-alpha kinase 1 (Homo sapiens) (Q9BQI3 whole entry): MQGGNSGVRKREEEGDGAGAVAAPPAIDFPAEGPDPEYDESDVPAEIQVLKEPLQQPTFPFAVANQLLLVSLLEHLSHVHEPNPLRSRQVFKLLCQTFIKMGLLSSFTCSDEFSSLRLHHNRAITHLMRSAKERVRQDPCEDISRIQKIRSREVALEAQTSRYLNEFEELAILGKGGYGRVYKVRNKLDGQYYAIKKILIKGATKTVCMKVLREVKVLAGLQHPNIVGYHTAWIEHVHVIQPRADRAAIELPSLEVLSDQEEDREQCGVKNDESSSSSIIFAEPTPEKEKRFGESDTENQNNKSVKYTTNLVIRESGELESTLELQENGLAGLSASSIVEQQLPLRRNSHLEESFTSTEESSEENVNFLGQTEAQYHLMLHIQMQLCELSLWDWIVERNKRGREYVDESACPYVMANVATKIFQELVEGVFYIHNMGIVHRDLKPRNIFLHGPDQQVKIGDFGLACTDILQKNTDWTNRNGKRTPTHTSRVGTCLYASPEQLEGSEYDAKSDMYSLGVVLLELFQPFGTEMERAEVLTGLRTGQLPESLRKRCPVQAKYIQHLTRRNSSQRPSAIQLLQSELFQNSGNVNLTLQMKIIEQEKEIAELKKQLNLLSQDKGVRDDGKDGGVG
# Chain of Serine/threonine-protein kinase MAK (Homo sapiens) (P20794 whole entry): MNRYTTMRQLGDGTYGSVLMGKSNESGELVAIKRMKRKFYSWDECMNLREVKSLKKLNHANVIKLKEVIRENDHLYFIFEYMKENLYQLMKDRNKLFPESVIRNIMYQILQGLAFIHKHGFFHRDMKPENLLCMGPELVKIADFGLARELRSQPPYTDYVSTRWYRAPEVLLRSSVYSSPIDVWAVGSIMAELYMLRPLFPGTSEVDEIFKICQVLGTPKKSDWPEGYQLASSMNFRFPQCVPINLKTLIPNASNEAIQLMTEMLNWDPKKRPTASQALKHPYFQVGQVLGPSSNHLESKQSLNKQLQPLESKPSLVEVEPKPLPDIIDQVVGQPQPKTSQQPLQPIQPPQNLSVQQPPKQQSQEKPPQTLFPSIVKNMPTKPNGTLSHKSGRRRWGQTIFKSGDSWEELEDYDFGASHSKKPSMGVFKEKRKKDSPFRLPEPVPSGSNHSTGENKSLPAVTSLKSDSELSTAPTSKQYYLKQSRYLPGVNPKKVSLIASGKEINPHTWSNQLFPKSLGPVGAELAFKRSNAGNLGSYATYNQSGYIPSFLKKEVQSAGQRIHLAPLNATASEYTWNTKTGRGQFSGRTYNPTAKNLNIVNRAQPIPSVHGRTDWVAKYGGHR
# Chain of Mast/stem cell growth factor receptor Kit (Homo sapiens), P10721 [D816V] (P10721 whole entry D816V): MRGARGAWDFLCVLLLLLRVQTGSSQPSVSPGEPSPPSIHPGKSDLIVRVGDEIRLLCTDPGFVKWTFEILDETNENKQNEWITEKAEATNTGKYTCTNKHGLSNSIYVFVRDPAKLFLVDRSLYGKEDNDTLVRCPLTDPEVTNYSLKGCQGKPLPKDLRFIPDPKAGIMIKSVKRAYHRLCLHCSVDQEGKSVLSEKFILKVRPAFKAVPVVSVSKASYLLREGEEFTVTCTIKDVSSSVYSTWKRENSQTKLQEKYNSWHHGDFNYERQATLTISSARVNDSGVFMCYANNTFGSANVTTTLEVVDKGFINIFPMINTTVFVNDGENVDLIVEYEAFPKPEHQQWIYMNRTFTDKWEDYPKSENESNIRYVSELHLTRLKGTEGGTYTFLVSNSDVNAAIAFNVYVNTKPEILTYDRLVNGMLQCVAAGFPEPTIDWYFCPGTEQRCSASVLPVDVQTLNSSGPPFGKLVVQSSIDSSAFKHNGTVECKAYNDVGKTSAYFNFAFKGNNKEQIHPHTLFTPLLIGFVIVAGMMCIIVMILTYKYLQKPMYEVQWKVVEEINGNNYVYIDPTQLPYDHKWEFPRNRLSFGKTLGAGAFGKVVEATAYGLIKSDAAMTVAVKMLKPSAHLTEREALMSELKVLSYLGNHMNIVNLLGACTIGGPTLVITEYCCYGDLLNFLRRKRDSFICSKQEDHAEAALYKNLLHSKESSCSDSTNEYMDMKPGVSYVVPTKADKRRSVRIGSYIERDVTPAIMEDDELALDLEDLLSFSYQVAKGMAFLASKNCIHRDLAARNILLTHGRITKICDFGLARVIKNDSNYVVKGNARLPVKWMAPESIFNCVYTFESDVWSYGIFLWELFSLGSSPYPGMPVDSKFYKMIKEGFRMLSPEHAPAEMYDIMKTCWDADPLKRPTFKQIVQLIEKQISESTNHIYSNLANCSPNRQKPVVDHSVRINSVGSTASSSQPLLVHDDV
# Chain of MAP kinase-interacting serine/threonine-protein kinase 2 (Homo sapiens) (Q9HBH9 whole entry, looked up): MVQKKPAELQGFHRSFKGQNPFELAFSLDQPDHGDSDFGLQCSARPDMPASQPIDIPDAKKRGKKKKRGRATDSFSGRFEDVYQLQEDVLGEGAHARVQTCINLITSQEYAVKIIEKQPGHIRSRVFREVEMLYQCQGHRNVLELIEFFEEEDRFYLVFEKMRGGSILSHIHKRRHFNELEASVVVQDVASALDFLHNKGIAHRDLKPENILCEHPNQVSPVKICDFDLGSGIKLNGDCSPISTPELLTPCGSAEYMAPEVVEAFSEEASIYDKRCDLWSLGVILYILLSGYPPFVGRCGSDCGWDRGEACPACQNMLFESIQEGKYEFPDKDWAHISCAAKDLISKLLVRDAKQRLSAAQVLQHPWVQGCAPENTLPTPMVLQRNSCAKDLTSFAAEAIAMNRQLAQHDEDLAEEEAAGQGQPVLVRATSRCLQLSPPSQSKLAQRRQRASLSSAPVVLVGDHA
smiles,measurement,setting,value
CCCCN(CCCC)C(=O)CN1C[C@@H](c2cc(OC)c3c(c2)OCO3)[C@H](C(=O)O)[C@H]1CC(C)(C)CCC [A-545],residual activity,[1],76.5%
same,residual activity,[2],99.2%
same,residual activity,[3],100%
same,residual activity,[4],96.8%
same,residual activity,[5],100%
same,residual activity,[6],100%
same,residual activity,[7],100%
same,residual activity,[8],99.1%
same,residual activity,[9],100%
same,residual activity,[10],100%
same,residual activity,[11],87.7%
same,residual activity,[12],89.4%
same,inhibition,[13],6.5%
same,residual activity,[14],89.9%
same,residual activity,[15],100%
same,residual activity,[16],79.9%
same,residual activity,[17],100%
same,residual activity,[18],99%
same,residual activity,[19],100%
same,residual activity,[20],99.6%
same,residual activity,[21],98.3%
same,inhibition,[22],41.1%
same,residual activity,[23],100%
same,residual activity,[24],100%
same,residual activity,[25],98.9%
same,residual activity,[26],92.1%
same,residual activity,[27],100%
same,residual activity,[28],100%
same,residual activity,[29],100%
same,residual activity,[30],100%
same,residual activity,[31],100%
same,residual activity,[32],95.9%
same,residual activity,[33],100%
same,residual activity,[34],96.5%
same,residual activity,[35],88.9%
same,residual activity,[36],95.4%
same,residual activity,[37],80.7%
same,residual activity,[38],100%
same,residual activity,[39],65.9%
same,inhibition,[40],7.84%
same,residual activity,[41],95.8%
same,residual activity,[42],98.4%
same,residual activity,[43],82.4%
same,residual activity,[44],90.5%
CCCCN(CCCC)C(=O)CN1C[C@H](c2cc(OC)c3c(c2)OCO3)[C@@H](C(=O)O)[C@@H]1CC(C)(C)CCC [ABT-546],residual activity,[1],80.9%
same,residual activity,[2],94.2%
same,residual activity,[3],100%
same,residual activity,[4],100%
same,residual activity,[5],64.8%
same,residual activity,[6],100%
same,residual activity,[7],100%
same,residual activity,[8],90.6%
same,residual activity,[9],100%
same,residual activity,[10],100%
same,residual activity,[11],100%
same,residual activity,[12],96.3%
same,inhibition,[13],-7.9%
same,residual activity,[14],72.1%
same,residual activity,[15],100%
same,residual activity,[16],92.3%
same,residual activity,[17],89.4%
same,residual activity,[18],92.8%
same,residual activity,[19],100%
same,residual activity,[20],100%
same,residual activity,[21],95.6%
same,inhibition,[22],25.6%
same,residual activity,[23],100%
same,residual activity,[24],100%
same,residual activity,[25],100%
same,residual activity,[26],95.6%
same,residual activity,[27],96.1%
same,residual activity,[28],56.9%
same,residual activity,[29],100%
same,residual activity,[30],62.8%
same,residual activity,[31],100%
same,residual activity,[32],89.7%
same,residual activity,[33],70.6%
same,residual activity,[34],83%
same,residual activity,[35],100%
same,residual activity,[36],72.8%
same,residual activity,[37],100%
same,residual activity,[38],100%
same,residual activity,[39],38%
same,inhibition,[40],8.83%
same,residual activity,[41],100%
same,residual activity,[42],81.7%
same,residual activity,[43],100%
same,residual activity,[44],100%
